Biological target: T1, SMYD2 (Homo sapiens, UniProt Q9NRG4)
T1 construct: Full length SMYD2 (NP 064582.2) was cloned; His6 (N, cleaved yes); FLAG (N); made in house; host or cells: Sf9 insect cells
Assay: SMYD2 Biochemical Assay (3H-SAM, biotinylated peptide substrate, Flashplate)
Conditions: IC50 values are an average of n = 1 to n = 50; read-out: SMYD2 Biochem IC50 (μM)*
Summary of the method: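 Methyltransferase activity tracked as 3H transfer from 10 nM 3H-SAM to 60 nM biotinylated peptide, counted after streptavidin Flashplate capture and normalised to DMSO and 1000 uM SAH controls. Enzyme: 1.5 nM full-length Sf9-expressed SMYD2, 30 min compound pre-incubation at room temperature, in Bicine pH 7.6 buffer with 2% DMSO; reactions quenched with 600 uM unlabelled SAM; IC50 from 3- or 4-parameter fit.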

T1 sequence (Q9NRG4 whole entry): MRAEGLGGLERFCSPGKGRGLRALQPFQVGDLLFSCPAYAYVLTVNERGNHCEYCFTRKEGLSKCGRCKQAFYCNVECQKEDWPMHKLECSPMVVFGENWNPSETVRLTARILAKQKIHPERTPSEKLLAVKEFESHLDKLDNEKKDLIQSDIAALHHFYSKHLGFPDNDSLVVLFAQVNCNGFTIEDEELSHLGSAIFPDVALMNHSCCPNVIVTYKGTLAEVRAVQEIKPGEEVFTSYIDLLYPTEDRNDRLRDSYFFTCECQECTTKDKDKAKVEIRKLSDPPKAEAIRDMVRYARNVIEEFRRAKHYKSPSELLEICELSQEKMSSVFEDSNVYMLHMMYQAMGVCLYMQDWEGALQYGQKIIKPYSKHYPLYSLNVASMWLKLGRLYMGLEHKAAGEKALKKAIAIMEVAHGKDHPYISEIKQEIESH

SMILES	IC50 [µM]
CC(=O)Nc1ccc(N2C[C@H](C)[C@H](NC(=O)c3cc(C4CC4)on3)C2)cc1 (racemic) [compound 278, (±)-cis-5-cyclopropyl-N-[1-(4-acetamido-phenyl)-4-methylpyrrolidin-3-yl]-1,2-oxazole-3-carboxamide]	> 50
CC(C)N1C[C@@H](C)[C@H](NC(=O)c2cc(C(F)F)on2)C1 (racemic) [compound 281, (±)-trans-5-(difluoro-methyl)-N-[4-methyl-1-(propan-2-yl)pyrrolidin-3-yl]-1,2-oxazole-3-carboxamide]	> 50
C[C@H]1CN(Cc2cc([N+](=O)[O-])ccc2F)C[C@H]1NC(=O)c1cc(C2CC2)on1 (racemic) [compound 282, (±)-cis-5-cyclopropyl-N-{1-[(2-fluoro-5-nitrophenyl)methyl]-4-methylpyrrolidin-3-yl}-1,2-oxazole-3-carboxamide]	26.7
C[C@H]1CN(Cc2ccsc2)C[C@H]1NC(=O)c1cc(C2CC2)on1 (racemic) [compound 283, (±)-cis-5-cyclopropyl-N-[4-methyl-1-(thiophen-3-ylmethyl)pyrrolidin-3-yl]-1,2-oxazole-3-carboxamide]	1.85
COc1ncc(CN2C[C@H](C)[C@H](NC(=O)c3cc(C4CC4)on3)C2)cc1Br (racemic) [compound 284, (±)-cis-N-{1-[(5-bromo-6-methoxypyridin-3-yl)methyl]-4-methyl-pyrrolidin-3-yl}-5-cyclopropyl-1,2-oxazole-3-carboxamide]	40.5
CNC(=O)CN1C[C@@H](C)[C@H](NC(=O)c2cc(C3CC3)on2)C1 (racemic) [compound 286, (±)-trans-5-cyclopropyl-N-{4-methyl-1-[(methyl-carbamoyl)methyl]pyrrolidin-3-yl}-1,2-oxazole-3-carboxamide]	> 50
CNC(=O)CN1C[C@H](C)[C@H](NC(=O)c2cc(C3CC3)on2)C1 (racemic) [compound 287, (±)-cis-5-cyclopropyl-N-{4-methyl-1-[(methyl-carbamoyl)methyl]pyrrolidin-3-yl}-1,2-oxazole-3-carboxamide]	> 50
C[C@H]1CN(Cc2c[nH]c(-c3ccccc3)n2)C[C@H]1NC(=O)c1cc(C2CC2)on1 (racemic) [compound 288, (±)-cis-5-cyclopropyl-N-{4-methyl-1-[(2-phenyl-1H-imidazol-4-yl)methyl]pyrrolidin-3-yl}-1,2-oxazole-3-carboxamide]	21.1
C[C@H]1CN(Cc2ccc3c(c2)OCCN3C)C[C@H]1NC(=O)c1cc(C2CC2)on1 (racemic) [compound 289, (±)-cis-5-cyclopropyl-N-{4-methyl-1-[(4-methyl-3,4-dihydro-2H-1,4-benzoxazin-7-yl)methyl]pyrrolidin-3-yl}-1,2-oxazole-3-carboxamide]	6.08
C[C@H]1CN(Cc2ccc(S(C)(=O)=O)cc2)C[C@H]1NC(=O)c1cc(C2CC2)on1 (racemic) [compound 290, (±)-cis-5-cyclopropyl-N-{1-[(4-methane-sulfonylphenyl)methyl]-4-methylpyrrolidin-3-yl}-1,2-oxazole-3-carboxamide]	10.5
C[C@H]1CN(CCc2ccccc2)C[C@H]1NC(=O)c1cc(C2CC2)on1 (racemic) [compound 291, (±)-cis-5-cyclopropyl-N-[4-methyl-1-(2-phenylethyl)pyrrolidin-3-yl]-1,2-oxazole-3-carboxamide]	2.46
C[C@@H]1CN(c2cnccn2)C[C@H]1NC(=O)c1cc(C2CC2)on1 (racemic) [compound 292, (±)-trans-5-cyclopropyl-N-[4-methyl-1-(pyrazin-2-yl)pyrrolidin-3-yl]-1,2-oxazole-3-carboxamide]	> 50
C[C@@H]1CN(CC(=O)N2CCCC2)C[C@H]1NC(=O)c1cc(C2CC2)on1 (racemic) [compound 293, (±)-trans-5-cyclopropyl-N-{4-methyl-1-[2-oxo-2-(pyrrolidin-1-yl)ethyl]pyrrolidin-3-yl}-1,2-oxazole-3-carboxamide]	> 50
C[C@@H]1CN(CC(=O)N2CCN(C)CC2)C[C@H]1NC(=O)c1cc(C2CC2)on1 (racemic) [compound 294, (±)-trans-5-cyclopropyl-N-{4-methyl-1-[2-(4-methylpiperazin-1-yl)-2-oxoethyl]pyrrolidin-3-yl}-1,2-oxazole-3-carboxamide]	> 50
CC(C)N1C[C@H](C)[C@H](NC(=O)c2cc(C(F)F)on2)C1 (racemic) [compound 300, (±)-cis-5-(difluoro-methyl)-N-[4-methyl-1-(propan-2-yl)pyrrolidin-3-yl]-1,2-oxazole-3-carboxamide]	9.59
C[C@H]1CN(c2cnccn2)C[C@H]1NC(=O)c1cc(C2CC2)on1 (racemic) [compound 302, (±)-cis-5-cyclopropyl-N-[4-methyl-1-(pyrazin-2-yl)pyrrolidin-3-yl]-1,2-oxazole-3-carboxamide]	> 50
C[C@H]1CN(CC(N)=O)C[C@H]1NC(=O)c1cc(C2CC2)on1 (racemic) [compound 303, (±)-cis-N-[1-(carbamoyl-methyl)-4-methyl-pyrrolidin-3-yl]-5-cyclo-propyl-1,2-oxazole-3-carboxamide]	> 50
C[C@H]1CN(CC(=O)N2CCNCC2)C[C@H]1NC(=O)c1cc(C2CC2)on1 (racemic) [compound 304, (±)-cis-5-cyclopropyl-N-{4-methyl-1-[2-oxo-2-(piperazin-1-yl)ethyl]pyrrolidin-3-yl}-1,2-oxazole-3-carboxamide]	> 50
C[C@H]1CN(Cc2nccn2C)C[C@H]1NC(=O)c1cc(C2CC2)on1 (racemic) [compound 305, (±)-cis-5-cyclopropyl-N-{4-methyl-1-[(1-methyl-1H-imidazol-2-yl)methyl]pyrrolidin-3-yl}-1,2-oxazole-3-carboxamide]	41.1
C[C@H]1CN(Cc2ccnn2C)C[C@H]1NC(=O)c1cc(C2CC2)on1 (racemic) [compound 306, (±)-cis-5-cyclopropyl-N-{4-methyl-1-[(1-methyl-1H-pyrazol-5-yl)methyl]pyrrolidin-3-yl}-1,2-oxazole-3-carboxamide]	41.2
C[C@@H]1CN(CC(N)=O)C[C@H]1NC(=O)c1cc(C2CC2)on1 (racemic) [compound 310, (±)-trans-N-[1-(carbamoylmethyl)-4-methylpyrrolidin-3-yl]-5-cyclopropyl-1,2-oxazole-3-carboxamide]	> 50
C[C@@H]1CN(CC(=O)N2CCNCC2)C[C@H]1NC(=O)c1cc(C2CC2)on1 (racemic) [compound 311, (±)-trans-5-cyclopropyl-N-{4-methyl-1-[2-oxo-2-(piperazin-1-yl)ethyl]pyrrolidin-3-yl}-1,2-oxazole-3-carboxamide]	> 50

Now from value to molecule:

IC50 [µM]	SMILES
> 50	COc1ccccc1N1C[C@H](C)[C@H](NC(=O)c2cc(C3CC3)on2)C1 (racemic) [compound 279, (±)-cis-5-cyclopropyl-N-[1-(2-methoxyphenyl)-4-methylpyrrolidin-3-yl]-1,2-oxazole-3-carboxamide]
> 50	COc1cccc(N2C[C@H](C)[C@H](NC(=O)c3cc(C4CC4)on3)C2)c1 (racemic) [compound 280, (±)-cis-5-cyclopropyl-N-[1-(3-methoxyphenyl)-4-methylpyrrolidin-3-yl]-1,2-oxazole-3-carboxamide]
> 50	CC(=O)Nc1ccccc1N1C[C@@H](C)[C@H](NC(=O)c2cc(C3CC3)on2)C1 (racemic) [compound 295, (±)-trans-5-cyclopropyl-N-[1-(2-acetamido-phenyl)-4-methylpyrrolidin-3-yl]-1,2-oxazole-3-carboxamide]
> 50	C[C@@H]1CN(c2ccccc2)C[C@H]1NC(=O)c1cc(C2CC2)on1 (racemic) [compound 296, (±)-trans-5-cyclopropyl-N-(4-methyl-1-phenyl-pyrrolidin-3-yl)-1,2-oxazole-3-carboxamide]
> 50	C[C@@H]1CN(c2cccc(Cl)c2)C[C@H]1NC(=O)c1cc(C2CC2)on1 (racemic) [compound 297, (±)-trans-N-[1-(3-chloro-phenyl)-4-methyl-pyrrolidin-3-yl]-5-cyclopropyl-1,2-oxazole-3-carboxamide]
> 50	C[C@@H]1CN(c2ccc(Cl)cc2)C[C@H]1NC(=O)c1cc(C2CC2)on1 (racemic) [compound 298, (±)-trans-N-[1-(4-chloro-phenyl)-4-methyl-pyrrolidin-3-yl]-5-cyclopropyl-1,2-oxazole-3-carboxamide]
> 50	COc1ccc(N2C[C@@H](C)[C@H](NC(=O)c3cc(C4CC4)on3)C2)cc1 (racemic) [compound 299, (±)-trans-5-cyclopropyl-N-[1-(4-methoxyphenyl)-4-methylpyrrolidin-3-yl]-1,2-oxazole-3-carboxamide]
> 50	C[C@H]1CN(c2ccccc2Cl)C[C@H]1NC(=O)c1cc(C2CC2)on1 (racemic) [compound 301, (±)-cis-N-[1-(2-chloro-phenyl)-4-methyl-pyrrolidin-3-yl]-5-cyclo-propyl-1,2-oxazole-3-carboxamide]
> 50	C[C@H]1CN(c2cccc(Cl)c2)C[C@H]1NC(=O)c1cc(C2CC2)on1 (racemic) [compound 307, (±)-cis-N-[1-(3-chlorophenyl)-4-methylpyrrolidin-3-yl]-5-cyclopropyl-1,2-oxazole-3-carboxamide]
> 50	COc1ccc(N2C[C@H](C)[C@H](NC(=O)c3cc(C4CC4)on3)C2)cc1 (racemic) [compound 308, (±)-cis-5-cyclopropyl-N-[1-(4-methoxy-phenyl)-4-methyl-pyrrolidin-3-yl]-1,2-oxazole-3-carboxamide]
> 50	C[C@@H]1CN(c2cccnc2)C[C@H]1NC(=O)c1cc(C2CC2)on1 (racemic) [compound 309, (±)-trans-5-cyclopropyl-N-[4-methyl-1-(pyridin-3-yl)pyrrolidin-3-yl]-1,2-oxazole-3-carboxamide]
